Assay results as given in paper PMC8746441, “Design, Synthesis and Preclinical Assessment of ^99mTc-iFAP for In Vivo Fibroblast Activation Protein (FAP) Imaging” (Molecules, 2022).

Columns and labels:
[1] = tested on: healthy laboratory Balb-C mice; test: Adverse effects of the cold ligand; type: in vivo; settings: dose of 40 mg/kg
[2] = Radiochemical stability of the radiopharmaceutical after labeling (radio-HPLC/ITLC-SG); type: physicochemical; settings: 24 h after labeling
Method: For radiolabeling, the lyophilized formulation was reconstituted with 1 mL of a 0.2 M phosphate buffer and 1 mL of ^99mTcO4Na (740–1110MBq). The reaction was incubated in a block heater for 15 min at 92 °C. The radiochemical purity was 98% as determined by radio-HPLC (Discovery C18; 5 μm particle size; L × I.D. 25 cm × 4.6 mm; linear gradient: 0.1% TFA/water (A) and 0.1% TFA/acetonitrile (B) flow rate of 1 mL/min. A-100% for 3 min, changed to A-50% over 10 min and maintained for 10 min, changed A-30% over 3 min and returned to A-100% over 4 min).
ITLC-SG (instant thin layer chromatography-silica gel) was also carried out for the assessment of ^99mTc-iFAP radiochemical purity. Three mobile phases were used, the 2-butanone phase was employed for the identification of free ^99mTcO4^− (Rf = 1), where ^99mTc-iFAP, ^99mTc-EDDA/tricine and ^99mTc-colloid remained in the origin (Rf = 0); 0.1 M sodium citrate (pH 5) identified free ^99mTcO4 (Rf = 1) and ^99mTc-EDDA/tricine coligands (Rf = 1), where ^99mTc-iFAP and ^99mTc-colloid remained in the origin (Rf = 0); finally, the third phase was used for the determination of ^99mTc-colloid (Rf = 0) and consisted of ammonium acetate-methanol (1:1 v/v) ( ^99mTcO4^−, ^99mTc-iFAP and ^99mTc-EDDA run with the solvent front; Rf = 1).

[3] = Human serum stability and protein binding (size-exclusion radio-HPLC); type: in vitro ADME
Method: The ^99mTc-iFAP (37 MBq, 100 µL, 14 nmol) was incubated at 37 °C with 500 µL of human serum (IST-909c certified human serum sample, Sigma-Aldrich) and diluted in 0.5 mL of a 0.9% NaCl solution. Twenty microliters of the mixture were sampled at 30 min, 3 and 24 h for size-exclusion radio-HPLC analysis using a ProteinPak 300SW Waters column and 0.01M PBS as the mobile phase (1 mL/min). The percentage of recovery (quantification of the radioactivity recovered from the HPLC column) was determined by injecting 20 µL of the ^99mTc-iFAP sample into the HPLC system and 20 µL into a 50 mL volumetric flask, which was filled with 0.01 M PBS (flask 1). The column was eluted with 0.01 M PBS for 50 min (1 mL/min) and the effluent was collected in a 50 mL volumetric flask (flask 2). Aliquots of 1 mL from both flask 1 and flask 2 were measured on an HPGe detector (ORTEC). The percentage of recovery was calculated by dividing the counts in flask 2 by the counts in flask 1 then multiplied by 100.

[4] = tested on: N30 (primary human stromal endometrial cells, FAP positive); test: Cellular uptake and internalization; type: cell-based; settings: 1 h, 37 °C
Method: The ^99mTc-iFAP uptake and internalization by N30 (FAP +) and fibroblast (FAP −) cells were determined by using 4 × 10^5 cells/500 µL of PBS in test tubes (n = 6). Both cells lines were incubated for 1 h at 37 °C with 10 µL of ^99mTc-iFAP (37 kBq, 0.4 nmol iFAP). After incubation, three washes with 500 µL of PBS were performed by centrifugation (700 g/5 min). By using a crystal scintillation (NaI(Tl)) well-type detector (MNL Inc., Littleton, CO, USA), the radioactivity in the cell pellet was evaluated. A standard volume with the initial activity was used to represent 100%, and the cell uptake activity was assessed with regard to this value. For the evaluation of internalization, the cell pellets were treated at 37 °C for 5 min with 500 µL of an acid glycine solution (0.1 M glycine, pH adjusted to 2.8 with HCl), and centrifuged (700 g/5 min). The cell pellet was incubated with 1 M NaOH for 5 min and centrifuged (700 g/5 min). The radioactivity of the supernatant was calculated as the percentage of internalization with regard to the initial activity of the standard volume as mentioned above.

[5] = tested on: mice with induced Hep-G2 tumors; test: Biodistribution and biokinetic models in tumor-bearing mice; type: in vivo; settings: for Biodistribution, Blood / Biodistribution, Bone / Biodistribution, Heart / Biodistribution, Tumor / Biodistribution, Intestine / Biodistribution, Kidneys / Biodistribution, Liver / Biodistribution, Lung / Biodistribution, Muscle (left thigh) / Biodistribution, Pancreas / Biodistribution, Spleen / Biodistribution, Stomach: i.v.
Method: The biodistribution studies in Balb-c male mice were carried out in agreement with Official Mexican Norm 062-ZOO-1999. Hep-G2 tumors were induced in mice (n = 15) by subcutaneous injection (right thigh; positive control) of 1 × 10^6 cells suspended in 0.2 mL of phosphate-buffered saline. Killed Klebsiella pneumoniae bacteria (heated for 2 h at […] and verified for absence of growth after culturing), aseptically suspended in 0.2 mL of PBS (1 × 10^6 bacteria), were subcutaneously administered into the left thigh of mice in order to induce inflammation (negative control). After the tumor was visible, ^99mTc-iFAP (50 µL, 18 MBq, 7 nmol of iFAP) was administered intravenously into the tail of each mouse. Three mice were selected for micro-SPECT/CT imaging, whereas the rest were sacrificed to be used in the biodistribution study. The times of evaluation were 15 min, 30 min, 2 h and 24 h. After the mice were sacrificed, the blood and main organs were removed, weighted and their radioactivity measured using a […] detector, in order to calculate the percentage of the injected dose per gram of tissue (%ID/g) by using an initial standard volume (100% of the initial injected activity). Biokinetic models of the four main target tissues/organs (blood, tumor, liver and kidneys) were obtained by fitting ^99mTc-iFAP time-activity curves to functions with two or three exponential terms Equation (2):(2) A(t)=Ae^−at+Be^−bt+Ce^−ct

[6] = tested on: tumor microenvironment of different types of cancer; test: Preliminary clinical SPECT/CT imaging studies; type: in vivo; settings: preliminary clinical studies in progress, breast, lung, colorectal, gliomas, cervical cancer
[7] = tested on: nude mice with induced Hep-G2 lesions; test: Micro-SPECT/CT imaging and tumor SUV; settings: for tumor SUVmax, the mouse shown in Figure 7: one nude mouse; for tumor SUVmax, the mouse shown in Figure 7 / tumor SUVmax: right thigh; for tumor SUVmax: Hep-G2 tumor
Method: Hep-G2 tumors were induced in mice (n = 15) by subcutaneous injection (right thigh; positive control) of 1 × 10^6 cells suspended in 0.2 mL of phosphate-buffered saline. Killed Klebsiella pneumoniae bacteria (heated for 2 h at 1000 °C and verified for absence of growth after culturing), aseptically suspended in 0.2 mL of PBS (1 × 10^6 bacteria), were subcutaneously administered into the left thigh of mice in order to induce inflammation (negative control). After the tumor was visible, ^99mTc-iFAP (50 µL, 18 MBq, 7 nmol of iFAP) was administered intravenously into the tail of each mouse. Three mice were selected for micro-SPECT/CT imaging, whereas the rest were sacrificed to be used in the biodistribution study. […] After the mice were sacrificed, the blood and main organs were removed, weighted and their radioactivity measured using a Na(Tl) detector, in order to calculate the percentage of the injected dose per gram of tissue (%ID/g) by using an initial standard volume (100% of the initial injected activity). Biokinetic models of the four main target tissues/organs (blood, tumor, liver and kidneys) were obtained by fitting ^99mTc-iFAP time-activity curves to functions with two or three exponential terms Equation (2):(2) A(t)=Ae^−at+Be^−bt+Ce^−ct

C[C@@H](NC(=O)c1ccc(NN)nc1)C(=O)N1CCC[C@H]1B(O)O [iFAP, ((R)-1-((6-hydrazinylnicotinoyl)-D-alanyl)pyrrolidin-2-yl) boronic acid]
adverse effects [1]: did not show adverse effects

^99mTc-((R)-1-((6-hydrazinylnicotinoyl)-D-alanyl) pyrrolidin-2-yl) boronic acid [^99mTc-iFAP]
radiochemical purity after 24 h of labeling [2]: greater than 97%
stability in fresh human serum ([3]; 30 min, 3 h and 24 h, 37 °C): remained stable
99mTc-colloid as activity retained in the column ([3]; from percentage of recovered activity, size-exclusion HPLC): 0.2%
transchelation of 99mTc to cysteine ([3]; human serum, 37 °C): does not occur
serum protein binding ([3]; human serum, 37 °C, 30 min): 0.3 ± 0.1%
serum protein binding ([3]; human serum, 37 °C, 3 h): 0.9 ± 0.2%
radiochemical stability in human serum ([3]; human serum, 37 °C, 24 h): > 95%
serum protein binding ([3]; human serum, 37 °C, 24 h): 2.1 ± 0.3%
internalization rate in N30 cells [4]: rather low
cellular uptake in N30 compared to fibroblasts ([4]; human fibroblasts FAP negative control, p < 0.05, n = 6): increased
Biodistribution, Blood ([5]; 15 min): 2.07 ± 0.63 %ID/g
Biodistribution, Blood ([5]; 30 min): 1.02 ± 0.32 %ID/g
Biodistribution, Blood ([5]; 2 h): 0.33 ± 0.05 %ID/g
Biodistribution, Blood ([5]; 24 h): 0.01 ± 0.01 %ID/g
Biodistribution, Bone ([5]; 15 min): 0.20 ± 0.09 %ID/g
Biodistribution, Bone ([5]; 30 min): 0.14 ± 0.06 %ID/g
Biodistribution, Bone ([5]; 2 h): 0.13 ± 0.02 %ID/g
Biodistribution, Heart ([5]; 15 min): 1.75 ± 0.08 %ID/g
Biodistribution, Heart ([5]; 30 min): 0.88 ± 0.23 %ID/g
Biodistribution, Heart ([5]; 2 h): 0.19 ± 0.03 %ID/g
Biodistribution, Tumor ([5]; Hep-G2 tumor, 15 min): 9.87 ± 1.94 %ID/g
Biodistribution, Tumor ([5]; Hep-G2 tumor, 30 min): 7.05 ± 1.13 %ID/g
Biodistribution, Tumor ([5]; Hep-G2 tumor, 2 h): 5.18 ± 0.82 %ID/g
Biodistribution, Tumor ([5]; Hep-G2 tumor, 24 h): 2.37 ± 0.26 %ID/g
tumor fast elimination constant (λeff) ([5]; Hep-G2 tumor, biokinetic model): 0.41 h⁻¹
tumor slow elimination constant (λeff) ([5]; Hep-G2 tumor, biokinetic model): 0.12 h⁻¹
Biodistribution, Intestine ([5]; 15 min): 1.42 ± 0.74 %ID/g
Biodistribution, Intestine ([5]; 30 min): 0.93 ± 0.14 %ID/g
Biodistribution, Intestine ([5]; 2 h): 0.22 ± 0.10 %ID/g
Biodistribution, Kidneys ([5]; 15 min): 13.85 ± 2.27 %ID/g
Biodistribution, Kidneys ([5]; 30 min): 11.18 ± 1.54 %ID/g
Biodistribution, Kidneys ([5]; 2 h): 7.46 ± 1.02 %ID/g
Biodistribution, Kidneys ([5]; 24 h): 1.89 ± 0.53 %ID/g
Biodistribution, Liver ([5]; 15 min): 2.78 ± 0.42 %ID/g
Biodistribution, Liver ([5]; 30 min): 2.14 ± 0.51 %ID/g
Biodistribution, Liver ([5]; 2 h): 1.05 ± 0.29 %ID/g
Biodistribution, Liver ([5]; 24 h): 0.05 ± 0.03 %ID/g
Biodistribution, Lung ([5]; 15 min): 1.11 ± 0.51 %ID/g
Biodistribution, Lung ([5]; 30 min): 0.65 ± 0.19 %ID/g
Biodistribution, Lung ([5]; 2 h): 0.02 ± 0.01 %ID/g
Biodistribution, Muscle (left thigh) ([5]; 15 min): 0.39 ± 0.15 %ID/g
Biodistribution, Muscle (left thigh) ([5]; 30 min): 0.31 ± 0.11 %ID/g
Biodistribution, Muscle (left thigh) ([5]; 2 h): 0.18 ± 0.06 %ID/g
Biodistribution, Pancreas ([5]; 15 min): 0.64 ± 0.10 %ID/g
Biodistribution, Pancreas ([5]; 30 min): 0.31 ± 0.12 %ID/g
Biodistribution, Pancreas ([5]; 2 h): 0.12 ± 0.04 %ID/g
Biodistribution, Spleen ([5]; 15 min): 1.07 ± 0.17 %ID/g
Biodistribution, Spleen ([5]; 30 min): 0.82 ± 0.04 %ID/g
Biodistribution, Spleen ([5]; 2 h): 0.15 ± 0.05 %ID/g
Biodistribution, Stomach ([5]; 15 min): 0.71 ± 0.08 %ID/g
Biodistribution, Stomach ([5]; 30 min): 0.39 ± 0.12 %ID/g
Biodistribution, Stomach ([5]; 2 h): 0.25 ± 0.03 %ID/g
fraction of radiotracer eliminated from blood, fast phase ([5]; blood, biokinetic model, fast): 88.6%
fraction of radiotracer eliminated from blood, slow phase ([5]; blood, biokinetic model, slow): 11.4%
blood half-life (slow) ([5]; blood, t1/2 = ln2/0.27): 154 min
blood half-life (fast) ([5]; blood, t1/2 = ln2/2.93): 14.4 min
kidney half-life, second phase ([5]; kidneys, t1/2 = ln2/1.54): 27 min
kidney half-life (fast) ([5]; kidneys, t1/2 = ln2/2.71): 15.6 min
fraction of activity eliminated from kidneys, fast phase ([5]; kidneys, triexponential model, fast): 49.4%
fraction of activity eliminated from kidneys, second phase ([5]; kidneys, triexponential model, second phase): 6.3%
fraction of activity eliminated from kidneys, slow phase ([5]; kidneys, triexponential model, slow): 44.3%
sensitivity to detect the tumor microenvironment [6]: high sensitivity
tumor SUVmax, the mouse shown in Figure 7 ([7]; 30 min): 5.6
tumor SUVmax ([7]; 30 min after administration): 5.0 ± 1.2
tumor SUVmax, the mouse shown in Figure 7 ([7]; 24 h): 2.4
tumor SUVmax ([7]; 24 h after administration): 2.7 ± 0.6
radiotracer uptake in left thigh with inflammation induced by killed bacteria (negative control) ([7]; micro-SPECT/CT, left thigh): no radiotracer uptake was observed
